Results published in patent US12077503B2, “Substituted cyclic amides and their use as herbicides” (FMC CORPORATION, priority 2015, dated 2024).

Key:
Type in all cases: in vivo
[1] = test system: barnyardgrass (Echinochloa crus-galli); assay: Test G Pre-Emergence Protocol; details: Echinochloa crus-galli, pre-emergence, 312 h, evaluated after 13 days; for pest or weed control at 15.625 g/ha: 15.625 g ai/ha; for pest or weed control at 15.625 g/ha / pest or weed control at 250 g/ha: read-out: Barnyardgrass damage rating (100=total damage to plant; 0=no damage to plant); for pest or weed control at 62.5 g/ha: 62.5 g ai/ha, 100=total damage to plant, 0=no damage to plant, read-out: Barnyardgrass damage rating; for pest or weed control at 250 g/ha: 250 g ai/ha
Procedure, shortened: (§1)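 One day after sowing, pots are treated with a spray of test compound formulated in acetone/water 50:50 plus 0.5% Tween 20, giving 15.625, 62.5 or 250 g/ha. Evaluation on a 0–100 damage scale follows 13 days of glasshouse growth.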

corn (Zea mays) [2] = assay: Test G Pre-Emergence Protocol; details: Zea mays, pre-emergence, 312 h, evaluated after 13 days; for plant injury at 15.625 g/ha: 15.625 g ai/ha; for plant injury at 15.625 g/ha / plant injury at 250 g/ha: read-out: Corn damage rating (100=total damage to plant; 0=no damage to plant); for plant injury at 62.5 g/ha: 62.5 g ai/ha, 100=total damage to plant, 0=no damage to plant, read-out: Corn damage rating; for plant injury at 250 g/ha: 250 g ai/ha
Procedure, shortened: as §1

[3] = test system: giant foxtail (Setaria faberi); assay: Test G Pre-Emergence Protocol; details: Setaria faberi, pre-emergence, 312 h, evaluated after 13 days; for pest or weed control at 15.625 g/ha: 15.625 g ai/ha; for pest or weed control at 15.625 g/ha / pest or weed control at 250 g/ha: read-out: Foxtail, Giant damage rating (100=total damage to plant; 0=no damage to plant); for pest or weed control at 62.5 g/ha: 62.5 g ai/ha, 100=total damage to plant, 0=no damage to plant, read-out: Foxtail, Giant damage rating; for pest or weed control at 250 g/ha: 250 g ai/ha
Procedure, shortened: as §1

[4] = test system: ivy-leaved morning glory (Ipomoea hederacea); assay: Test G Pre-Emergence Protocol; details: Ipomoea, pre-emergence, 312 h, evaluated after 13 days; for pest or weed control at 15.625 g/ha: 15.625 g ai/ha; for pest or weed control at 15.625 g/ha / pest or weed control at 250 g/ha: read-out: Morningglory, Ivy-leaved damage rating (100=total damage to plant; 0=no damage to plant); for pest or weed control at 62.5 g/ha: 62.5 g ai/ha, 100=total damage to plant, 0=no damage to plant, read-out: Morningglory, Ivy-leaved damage rating; for pest or weed control at 250 g/ha: 250 g ai/ha
Procedure, shortened: as §1

[5] = test system: redroot pigweed (Amaranthus retroflexus); assay: Test G Pre-Emergence Protocol; details: Amaranthus retroflexus, pre-emergence, 312 h, evaluated after 13 days; for pest or weed control at 15.625 g/ha: 15.625 g ai/ha; for pest or weed control at 15.625 g/ha / pest or weed control at 250 g/ha: read-out: Pigweed, Redroot damage rating (100=total damage to plant; 0=no damage to plant); for pest or weed control at 62.5 g/ha: 62.5 g ai/ha, 100=total damage to plant, 0=no damage to plant, read-out: Pigweed, Redroot damage rating; for pest or weed control at 250 g/ha: 250 g ai/ha
Procedure, shortened: as §1

[6] = test system: velvetleaf (Abutilon theophrasti); assay: Test G Pre-Emergence Protocol; details: Abutilon theophrasti, pre-emergence, 312 h, evaluated after 13 days; for pest or weed control at 15.625 g/ha: 15.625 g ai/ha; for pest or weed control at 15.625 g/ha / pest or weed control at 250 g/ha: read-out: Velvetleaf damage rating (100=total damage to plant; 0=no damage to plant); for pest or weed control at 62.5 g/ha: 62.5 g ai/ha, 100=total damage to plant, 0=no damage to plant, read-out: Velvetleaf damage rating; for pest or weed control at 250 g/ha: 250 g ai/ha
Procedure, shortened: as §1

[7] = test system: barnyardgrass (Echinochloa crus-galli); assay: Test G Post-Emergence Protocol; details: Echinochloa crus-galli, post-emergence, 312 h, read-out: Barnyardgrass damage rating; for pest or weed control at 15.625 g/ha: 15.625 g ai/ha, evaluated after 13 days (100=total damage to plant; 0=no damage to plant); for pest or weed control at 62.5 g/ha: 62.5 g ai/ha; for pest or weed control at 62.5 g/ha / pest or weed control at 250 g/ha: evaluated after 13 days, 100=total damage to plant, 0=no damage to plant; for pest or weed control at 250 g/ha: 250 g ai/ha
Procedure, shortened: (§2)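 Scores run 0 (no damage) to 100 (total damage) and were taken 13 days after spraying. Plants had been raised in pots for 8 days under glasshouse control (24/16 °C, 14 h photoperiod, 65% humidity) and then treated at 15.625, 62.5 or 250 g/ha.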

corn (Zea mays) [8] = assay: Test G Post-Emergence Protocol; details: Zea mays, post-emergence, 312 h, read-out: Corn damage rating; for plant injury at 15.625 g/ha: 15.625 g ai/ha, evaluated after 13 days (100=total damage to plant; 0=no damage to plant); for plant injury at 62.5 g/ha: 62.5 g ai/ha; for plant injury at 62.5 g/ha / plant injury at 250 g/ha: evaluated after 13 days, 100=total damage to plant, 0=no damage to plant; for plant injury at 250 g/ha: 250 g ai/ha
Procedure, shortened: as §2

[9] = test system: giant foxtail (Setaria faberi); assay: Test G Post-Emergence Protocol; details: Setaria faberi, post-emergence, 312 h, read-out: Foxtail, Giant damage rating; for pest or weed control at 15.625 g/ha: 15.625 g ai/ha, evaluated after 13 days (100=total damage to plant; 0=no damage to plant); for pest or weed control at 62.5 g/ha: 62.5 g ai/ha; for pest or weed control at 62.5 g/ha / pest or weed control at 250 g/ha: evaluated after 13 days, 100=total damage to plant, 0=no damage to plant; for pest or weed control at 250 g/ha: 250 g ai/ha
Procedure, shortened: as §2

[10] = test system: ivy-leaved morning glory (Ipomoea hederacea); assay: Test G Post-Emergence Protocol; details: Ipomoea, post-emergence, 312 h, read-out: Morningglory, Ivy-leaved damage rating; for pest or weed control at 15.625 g/ha: 15.625 g ai/ha, evaluated after 13 days (100=total damage to plant; 0=no damage to plant); for pest or weed control at 62.5 g/ha: 62.5 g ai/ha; for pest or weed control at 62.5 g/ha / pest or weed control at 250 g/ha: evaluated after 13 days, 100=total damage to plant, 0=no damage to plant; for pest or weed control at 250 g/ha: 250 g ai/ha
Procedure, shortened: as §2

[11] = test system: redroot pigweed (Amaranthus retroflexus); assay: Test G Post-Emergence Protocol; details: Amaranthus retroflexus, post-emergence, 312 h, read-out: Pigweed, Redroot damage rating; for pest or weed control at 15.625 g/ha: 15.625 g ai/ha, evaluated after 13 days (100=total damage to plant; 0=no damage to plant); for pest or weed control at 62.5 g/ha: 62.5 g ai/ha; for pest or weed control at 62.5 g/ha / pest or weed control at 250 g/ha: evaluated after 13 days, 100=total damage to plant, 0=no damage to plant; for pest or weed control at 250 g/ha: 250 g ai/ha
Procedure, shortened: as §2

[12] = test system: velvetleaf (Abutilon theophrasti); assay: Test G Post-Emergence Protocol; details: Abutilon theophrasti, post-emergence, 312 h, read-out: Velvetleaf damage rating; for pest or weed control at 15.625 g/ha: 15.625 g ai/ha, evaluated after 13 days (100=total damage to plant; 0=no damage to plant); for pest or weed control at 62.5 g/ha: 62.5 g ai/ha; for pest or weed control at 62.5 g/ha / pest or weed control at 250 g/ha: evaluated after 13 days, 100=total damage to plant, 0=no damage to plant; for pest or weed control at 250 g/ha: 250 g ai/ha
Procedure, shortened: as §2

SMILES	pest or weed control at 15.625 g/ha [1] [%]	pest or weed control at 62.5 g/ha [1] [%]	pest or weed control at 250 g/ha [1] [%]	plant injury at 15.625 g/ha (corn (Zea mays) [2]) [%]	plant injury at 62.5 g/ha (corn (Zea mays) [2]) [%]	plant injury at 250 g/ha (corn (Zea mays) [2]) [%]	pest or weed control at 15.625 g/ha [3] [%]	pest or weed control at 62.5 g/ha [3] [%]	pest or weed control at 250 g/ha [3] [%]	pest or weed control at 15.625 g/ha [4] [%]	pest or weed control at 62.5 g/ha [4] [%]	pest or weed control at 250 g/ha [4] [%]	pest or weed control at 15.625 g/ha [5] [%]	pest or weed control at 62.5 g/ha [5] [%]	pest or weed control at 250 g/ha [5] [%]	pest or weed control at 15.625 g/ha [6] [%]	pest or weed control at 62.5 g/ha [6] [%]	pest or weed control at 250 g/ha [6] [%]	pest or weed control at 15.625 g/ha [7] [%]	pest or weed control at 62.5 g/ha [7] [%]	other results
CN1C[C@H](c2cccc(C(F)(F)F)c2)[C@@H](C(=O)Nc2cc(C#N)ccn2)C1=O (racemic) [Compound 1735]	0	0	0	0	0	0	0	0	0	0	0	0	0	0	0	0	0	0	0	0	pest or weed control at 250 g/ha [7]: 0%; plant injury at 15.625 g/ha (corn (Zea mays) [8]): 0%; plant injury at 62.5 g/ha (corn (Zea mays) [8]): 0%; plant injury at 250 g/ha (corn (Zea mays) [8]): 0%; pest or weed control at 15.625 g/ha [9]: 0%; pest or weed control at 62.5 g/ha [9]: 0%; pest or weed control at 250 g/ha [9]: 0%; pest or weed control at 15.625 g/ha [10]: 0%; pest or weed control at 62.5 g/ha [10]: 0%; pest or weed control at 250 g/ha [10]: 0%; pest or weed control at 15.625 g/ha [11]: 0%; pest or weed control at 62.5 g/ha [11]: 0%; pest or weed control at 250 g/ha [11]: 0%; pest or weed control at 15.625 g/ha [12]: 0%; pest or weed control at 62.5 g/ha [12]: 0%; pest or weed control at 250 g/ha [12]: 0%
CSc1ccncc1NC(=O)[C@H]1C(=O)N(C)C[C@@H]1c1ccc(C(F)(F)F)cc1 (racemic) [Compound 1749]	0	0	0	0	0	0	0	0	0	0	0	0	0	0	0	0	0	0	0	0	pest or weed control at 250 g/ha [7]: 0%; plant injury at 15.625 g/ha (corn (Zea mays) [8]): 0%; plant injury at 62.5 g/ha (corn (Zea mays) [8]): 0%; plant injury at 250 g/ha (corn (Zea mays) [8]): 0%; pest or weed control at 15.625 g/ha [9]: 0%; pest or weed control at 62.5 g/ha [9]: 0%; pest or weed control at 250 g/ha [9]: 0%; pest or weed control at 15.625 g/ha [10]: 0%; pest or weed control at 62.5 g/ha [10]: 0%; pest or weed control at 250 g/ha [10]: 0%; pest or weed control at 15.625 g/ha [11]: 0%; pest or weed control at 62.5 g/ha [11]: 0%; pest or weed control at 250 g/ha [11]: 0%; pest or weed control at 15.625 g/ha [12]: 0%; pest or weed control at 62.5 g/ha [12]: 0%; pest or weed control at 250 g/ha [12]: 0%
C=C(C)c1cccc([C@@H]2CN(C)C(=O)[C@H]2C(=O)Nc2cccc(F)c2C)c1 (racemic) [Compound 1828]	70	80	90	0	10	70	80	90	90	0	0	30	0	0	0	0	0	30	30	80	pest or weed control at 250 g/ha [7]: 80%; plant injury at 15.625 g/ha (corn (Zea mays) [8]): 0%; plant injury at 62.5 g/ha (corn (Zea mays) [8]): 10%; plant injury at 250 g/ha (corn (Zea mays) [8]): 70%; pest or weed control at 15.625 g/ha [9]: 70%; pest or weed control at 62.5 g/ha [9]: 80%; pest or weed control at 250 g/ha [9]: 80%; pest or weed control at 15.625 g/ha [10]: 20%; pest or weed control at 62.5 g/ha [10]: 60%; pest or weed control at 250 g/ha [10]: 70%; pest or weed control at 15.625 g/ha [11]: 0%; pest or weed control at 62.5 g/ha [11]: 0%; pest or weed control at 250 g/ha [11]: 20%; pest or weed control at 15.625 g/ha [12]: 0%; pest or weed control at 62.5 g/ha [12]: 20%; pest or weed control at 250 g/ha [12]: 10%
